The source of these data is patent US20220387342A1, “TRANSDERMAL PATCH” (University of Sunderland, priority 2019, published 2022).

Converted amounts (≈) assume the structure as drawn. Counter-ions that a name gives are not always drawn.

Data set [1] is described as follows: Stability study: drug content of hydrogel films after storage (HPLC), shelf life estimate. The data set is classed as physicochemical. As to conditions: 0-6 months, ambient and accelerated. How it is done:
The stability of the transdermal patch of the invention may be investigated over the course of 6 months under ambient (20.9±0.6° C./43±2.5% RH) and accelerated (40° C./75% RH) conditions. The patches are tested at time intervals of 0, 1, 2, 3 and 6 months to determine the extent of any physical, chemical and microbial changes that may have occurred.
Packaged pouches were either placed under ambient conditions (20.9±0.7° C./46.0±3.1% RH) or under accelerated conditions (40° C./75% RH), for 6 months with intermediate testing at 0, 1, 2, 3 and 6 months according to the protocol in Table 7.
To quantify the amount of drug present at each time point, hydrogel films were removed from each patch (n=3) at 0, 1, 3 and 6 months and dissolved in 5 mL 80% v/v acetonitrile for 16 hours at 30° C. in an Elmasonic S 30 H sonicating water bath (Elma Schmidbauer, Singen, Germany). After 16 hours, the samples were filtered using 0.2 μm Whatman syringeless filters vials with nylon filter media and polypropylene housing (GE Healthcare UK Ltd., Little Chalfont, Buckinghamshire, UK) and injected in triplicate to the HPLC.
Based on the drug content of the hydrogels only, a shelf life may be predicted by extrapolating the data and calculating how long it would take to reach 90% of the stated dose. […]

The test system of data set [2] is bacteria, yeasts and moulds. Put plainly: Small scale study of microbial growth in naltrexone solutions. The following applies: for bacterial colony count: after 3 weeks incubation time; for microbial growth: summary b334. Here is the method: This was also evidenced in a small scale study in which the microbial growth in solutions of naltrexone base and naltrexone hydrochloride were compared to a control after being stored for 25 days at 27° C. […] After 48 hours, the bacterial colony count increased to approximately 10^4 CFU/mL in the control sample and to approximately 10^2 CFU/mL in the NTX base sample. […] After 3 weeks incubation time, the bacterial colony count increased to ˜10^5 CFU/mL on the control sample, ˜10^3 CFU/mL for naltrexone base and ˜10^2 CFU/mL for naltrexone hydrochloride. Thus, a longer incubation time was required for growth of microbial colonies in the medicated samples.

For data set [3] the following is noted: tertiary aliphatic nitrogen; cited from earlier work.
The conditions of data set [4]: cited from earlier work.
Data set [5] can be described thus: Differential scanning calorimetry: drug crystallinity and saturation in PEO films. The data set is classed as physicochemical. The following applies: from plot of enthalpy of fusion against drug concentration, y = 0. How it is done:
Differential scanning calorimetry (DSC) of NTX.base, NTX.HCl, PEO and loaded hydrogel films (irradiated and non-irradiated) may be performed with suitable DSC instruments, such as a DSC Q1000 (TA Instruments, New Castle, Del., USA). The DSC was conditioned for two hours prior to use. Samples (5-10 mg) were accurately weighed using a microbalance (Mettler-Toledo, Greifensee, Switzerland), placed in an aluminium hermetic sample pan and sealed with a hermetic lid (TA Instruments, New Castle, Del., USA). The samples were subjected to standard heat/cool/heat at a rate of 10° C./min, under a constant flow of nitrogen at a rate of 50 mL/min. Suitable settings include the following: • For NTX.base API and NTX.base loaded films, the heat/cool/heat cycle was from −80° C. to 200° C. to −80° C. to 200° C. • NTX.HCl API was heated from −80° C. to 285° C., then cooled to −80° C., and then heated for a second time to 285° C. […]
DSC analysis was performed, in accordance with the method described in the “Assays” part of the present disclosure. […] From the enthalpy of fusion values for NTX.HCl within the films, the saturation solubility of naltrexone hydrochloride within PEO was calculated by plotting enthalpy against drug concentration. […]

The test system of data set [6] is bacteria, moulds and yeasts. Put plainly: Stability study: microbiology of patches (Mikrocount duo dipslides). The following applies: storage up to 6 months, ambient and accelerated. Here is the method:
Mikrocount® duo dipslides (Schulke & Mayr GmbH, Norderstedt, Germany) were used to determine total plate count and to detect presence of moulds and yeasts. The surface of each side of the dipslide was placed in contact with the hydrogel surface of the patch for 5 seconds. The dipslides were then placed in their sealed container and incubated for 72 hours at 27±1° C. Once incubated, the dipslides were compared to images within the Mikrocount® brochure to evaluate the colony forming units per cm^2.

As to `O=C1CC[C@@]2(O)[C@H]3Cc4ccc(O)c5c4[C@@]2(CCN3CC2CC2)[C@H]1O5` [naltrexone base, 17-(Cyclopropylmethyl)-4,5α-epoxy-3,14-dihydroxymorphinan-6-one], the “degradation of naltrexone under storage (HPLC chromatograms)” value in data set [1] is “did not degrade under storage into any other compounds”. In addition, the yeasts or moulds result in data set [2] (any incubation time point) is “No yeasts or moulds were detected”. In data set [2] (solutions), the bacterial colony count is given as ~10^3 CFU/mL and the microbial growth result is “approximately 10^3 CFU/mL”. Also, the pKa in data set [3] is 8.3. In addition, the aqueous solubility in data set [4] is 510 µg/mL (≈ 1490 µM).

For `O=C1CC[C@@]2(O)[C@H]3Cc4ccc(O)c5c4[C@@]2(CCN3CC2CC2)[C@H]1O5` [naltrexone hydrochloride], the “maximum drug loading before crystals are loaded to the film (saturation solubility within PEO)” value in data set [5] was found to be 4.40 % w/w. Further, in data set [2] (solutions, hydrochloride), the bacterial colony count result is “approximately 10^2 CFU/mL” and the microbial growth entry is “approximately 10^2 CFU/mL”. The bacterial growth entry in data set [2] (solutions, after 72 hours) is “Negligible bacterial growth”.

For the compound `CC(O)CO` (centres unmarked) [propylene glycol], the “microbial growth on patches” value in data set [6] was “prevented bacteria, yeast and mould from growing at all throughout the study”.

For orientation: pKa means the pH at which an ionisable group is half protonated. Broadly, the aqueous solubility is how much of the substance goes into solution per volume.
